Laboratory results taken from patent US20250295579A1, “SKIN CARE COMPOSITION AND USES THEREOF” (S-BIOMEDIC NV, priority 2022, published 2025).

Key:
Test in all cases: Influence of cosmetic ingredients on C. acnes growth in 96-well plates (OD600)
Assay type in all cases: cell-based, Cutibacterium acnes
C. acnes D1 strain = system: C. acnes D1 strain
Protocol: (§1) One day before the experiment: starter bacterial cultures of C. acnes A1, D1, H1 and K8 strains from the working cell bank (WCB) glycerol stocks were prepared in a final volume of 15 ml. The C. acnes strains were isolated from healthy volunteers and they were characterized for their growth, 16S and SLST sequence to identify the specific strain. The volumes of WCB were 1 ml for A1 and 300 μl for D1, H1, and K8. The cultures were incubated overnight at 37° C.
(§2) At the day of the experiment, after 24 h incubation, inoculums were taken out of the incubator and homogenized with vortex. 50 μl aliquots were separated from each inoculum to 1.5 ml tubes and their OD600 was measured by Nanodrop.
(§3) Each aliquot was measured twice and its OD600 was determined by calculating the mean value. The tubes were centrifuged (3000 rcf, 5 min) and the supernatant was discarded. The pellet was resuspended in 15 ml of PBS (phosphate buffered saline). This washing, consisting of centrifugation, discarding the supernatant, and resuspension was repeated. Then, the OD600 was adjusted in PBS to 2 for each strain. Small aliquots were separated and read on Nanodrop again at the end of this process to ensure a starting OD600 of 2 (+/−0.2) in the bacterial cultures.
(§4) All the ingredients were tested in either of the two different media: PBS 3% w/v Glucose and PBS 1% w/v Peptone. Additionally, all strains were grown on PBS and PBS 3% w/v Glucose 1% w/v Peptone, as negative and positive control, respectively.
(§5) Medium was prepared at 2.5×concentration and then diluted to 1× when mixed with the ingredient and inoculum into the test plates.
(§6) PBS 7.5% w/v Glucose media was filter sterilized (Millipore pump). 50% w/v Peptone diluted in ultrapure water (Milli-Q) was prepared, autoclaved and then diluted to 2.5% w/v with PBS. PBS 7.5% w/v Glucose 2.5% w/v peptone media was prepared diluting 50% Peptone on filtered PBS 7.125% Glucose.
(§7) The range of concentrations tested was based on the concentration that the chosen compound could have in the final cosmetic product. Three different concentrations were tested for each ingredient: maximum concentration, minimum concentration and a concentration in the middle between the maximum and minimum concentration (half of the highest one).
(§8) All compounds were prepared on milliQ water. 50 ml of stocks for each ingredient were prepared at double of the highest concentration to be tested. After solubilization, the ingredients were filter sterilized.
(§9) The experiment was performed in transparent 96-well plates. Each one of them contained one media (either peptone or glucose), one strain inoculum and either of the ingredients. The final volume in each well was 200 μl: 100 μl of 2× ingredient, 80 μl of 2.5× medium and 20 μl of bacterial inoculum of OD600. Triplicates were done for every condition. Controls without ingredient and without bacteria were included in this experiment to detect possible contaminations.
(§10) One 96-well 2 ml deep well-plate was used for each batch. The double concentrated ingredients were distributed manually on the deep well plate and the corresponding serial dilutions were performed on PBS with an automatic multichannel pipette. Then, the content of each deep well plate was distributed to 8 different 96-standard well plate with Zephyr SPE workstation (automated liquid handler).
(§11) 100 μl of ingredient per well were transferred to each plate. The zephyr program contained a resuspension step on the deep well plate and a step in which the tips leaned on the sides of each well of the plates to ensure the accurate volume disposal.
(§12) Once the 100 μl of ingredient were transferred to each plate, 80 μl of either Glucose or Peptone medium was poured into the plate with Multidrop Combi Plate dispenser (Thermo Fisher). The multidrop was also used to dispense 20 μl per well of the corresponding strain inoculum, which was previously prepared as described in the previous part. […]

C. acnes H1 strain = system: C. acnes H1 strain
Protocol: as §1, §2, §3, §4, §5, §6, §7, §8, §9, §10, §11, §12

C. acnes A1 strain = details: PBS 1% w/v peptone
Protocol: as §1, §2, §3, §4, §5, §6, §7, §8, §9, §10, §11, §12

C. acnes K8 strain = system: C. acnes K8 strain
Protocol: as §1, §2, §3, §4, §5, §6, §7, §8, §9, §10, §11, §12

[1] = 1% v/v glycerol, PBS 1% w/v peptone, FIG. 1
[2] = 3% w/v sodium lactate, PBS 1% w/v peptone, FIG. 3
[3] = 1% w/v sorbitol, PBS 1% w/v peptone, FIG. 2
[4] = 0.075% w/v sodium cetaryl sulphate, PBS 3% w/v glucose, FIG. 5

Q: What does the source list for OCC(O)CO [Glycerol]?
A: improvement of growth compared to the peptone control condition (C. acnes D1 strain; [1]): four; improvement of growth compared to the peptone control condition (C. acnes H1 strain; [1]): four; improvement of growth compared to the peptone control condition (C. acnes A1 strain; 1% v/v glycerol, FIG. 1): four; improvement of growth compared to the peptone control condition (C. acnes K8 strain; [1]): four

Q: Which effect on growth (C. acnes D1 strain; [2]) does the source give for CC(O)C(=O)[O-].[Na+] (stereo not drawn) [Sodium lactate, sodium lactate] here?
A: improved the growth

Q: And the effect on growth (C. acnes H1 strain; [2])?
A: improved the growth

Q: What about the effect on growth (C. acnes A1 strain; 3% w/v sodium lactate, FIG. 3) of the same compound?
A: improved the growth

Q: And the effect on growth (C. acnes K8 strain; [2])?
A: improved the growth of the four tested strains, with a higher effect on the strain K8

Q: Which results are given for OC[C@@H](O)[C@@H](O)[C@H](O)[C@@H](O)CO [Sorbitol]?
A: effect on growth (C. acnes D1 strain; [3]): improved the growth; growth improved by a factor (C. acnes H1 strain; [3]): 4.5; effect on growth (C. acnes A1 strain; 1% w/v sorbitol, FIG. 2): improved the growth; effect on growth (C. acnes K8 strain; [3]): improved the growth

Q: With “sodium cetearyl sulphate [Sodium cetaryl sulphate]” as the compound, how does the effect on growth (C. acnes D1 strain; [4]) read?
A: selectively and significantly improved the growth

Q: What about the effect on growth (C. acnes H1 strain; [4]) of the same compound?
A: selectively and significantly improved the growth

Q: What about the effect on growth (C. acnes K8 strain; [4]) of the same compound?
A: Negative effect
